In ChEMBL document CHEMBL1201862, “PubChem BioAssay data set” (2004):
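Each compound was tested at five concentrations against cells in 96-well plates for 48 hours. Abbreviation: GI50, concentration required for 50% inhibition of growth.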 Activity calls are given as the source filed them. Rule as the data show it: active = GI50 up to about 1.1 µM and inactive = higher. *1 amine or outer side, *2 acyl side, *3 side chain or, on linkers, in order; H or OH if unused. Where a SMILES comes first, the peptide text is derived from it. [ ]: non-standard residue; d: D form. The star is where a group is joined. ξ: configuration not given here. NMeY = CN[C@@H](Cc1ccc(O)cc1)C(=O)O; Ethylenediamine = C(CN[*:2])N[*:1]; ξNMeL = CNC(CC(C)C)C(=O)O; Cbz = O=C(OCc1ccccc1)*; Lac = C[C@H](O)C(=O)O; ξA = CC(N)C(=O)O

Columns and labels:
Experiment in all cases: NCI tumour cell line growth inhibition, 48 h
[1] = test system: NCI-H226
[2] = test system: SR
[3] = test system: SK-MEL-28
[4] = test system: SF-539
[5] = test system: CCRF-CEM
[6] = test system: SF-295
[7] = test system: Malme-3M
[8] = test system: OVCAR-5
[9] = test system: CAKI-1
[10] = test system: SW-620
[11] = test system: LOX IMVI
[12] = test system: DU-145
[13] = test system: NCI-H23
[14] = test system: SF-268
[15] = test system: UO-31
[16] = test system: HCC 2998
[17] = test system: 786-0
[18] = test system: A498
[19] = test system: M19-MEL
[20] = test system: KM-20L2

Row | Structure (SMILES) | GI50 [1] | GI50 [2] | GI50 [3] | GI50 [4] | GI50 [5] | GI50 [6] | GI50 [7] | GI50 [8] | GI50 [9] | GI50 [10] | GI50 [11] | GI50 [12] | GI50 [13] | GI50 [14] | GI50 [15] | GI50 [16] | GI50 [17] | GI50 [18] | GI50 [19] | GI50 [20]
1 | CCN(CCCl)c1cc(CN(C)C)cc(NC(=O)C23CCC(C(=O)Nc4cc(CN(C)C)cc(N(CC)CCCl)c4)(CC2)CC3)c1 | 1.4 µM (inactive) | 0.0329 µM (active) | 1.75 µM (inactive) | 0.443 µM (active) | < 0.01 µM (active) | 1.59 µM (inactive) | 1.71 µM (inactive) | 1.5 µM (inactive) | 11.1 µM (inactive) | 0.105 µM (active) | 0.152 µM (active) | 0.804 µM (active) | 0.424 µM (active) | 0.23 µM (active) | 17.1 µM (inactive) | 1.33 µM (inactive) | 0.073 µM (active) | 6.44 µM (inactive) |  | 
2 | COc1ccc(OC)c(/N=C/c2cc(OC)c(OC)c(OC)c2)c1 | > 50.2 µM (inactive) | 32.5 µM (inactive) | > 89.1 µM (inactive) | > 100 µM (inactive) | 22.9 µM (inactive) | > 100 µM (inactive) | > 100 µM (inactive) | > 100 µM (inactive) | 80.5 µM (inactive) | > 91.2 µM (inactive) | > 100 µM (inactive) | > 100 µM (inactive) | > 100 µM (inactive) | > 100 µM (inactive) | > 100 µM (inactive) | > 100 µM (inactive) | > 95.7 µM (inactive) | > 100 µM (inactive) |  | 
3 | COC(=O)CCC(C)[C@H]1CCC2C3C(C[C@H](OC(C)=O)[C@@]21C)[C@@]1(C)CCC2(C[C@H]1C[C@H]3OC(C)=O)OOC1(CCCCC1)OO2 (stereo partly drawn) | 17.7 µM (inactive) | 4.26 µM (inactive) | > 100 µM (inactive) | 60.1 µM (inactive) | 4.27 µM (inactive) | 20.7 µM (inactive) | 36.4 µM (inactive) | 43.5 µM (inactive) | 41.1 µM (inactive) | 33.3 µM (inactive) | 11.5 µM (inactive) | 41.5 µM (inactive) | 12.7 µM (inactive) | 25 µM (inactive) | 5.73 µM (inactive) | 28.3 µM (inactive) | 15.1 µM (inactive) | > 100 µM (inactive) |  | 
4 | COc1ccc(C2S/C(=C\c3ccc(OC)cc3OC)C(=O)N2NC(=O)Cc2ccccc2)cc1 (stereo not drawn) | > 100 µM (inactive) | > 100 µM (inactive) |  | > 100 µM (inactive) | 89.5 µM (inactive) | > 100 µM (inactive) | > 100 µM (inactive) | > 100 µM (inactive) | > 100 µM (inactive) | > 100 µM (inactive) | > 100 µM (inactive) |  | > 100 µM (inactive) | > 100 µM (inactive) | > 100 µM (inactive) |  | > 100 µM (inactive) | > 100 µM (inactive) | > 100 µM (inactive) | 
5 | CC(C)(c1ccccc1)c1ccc(Oc2ccc3c(c2)-c2nc-3nc3[nH]c(nc4nc(nc5[nH]c(n2)c2ccc(Oc6ccc(C(C)(C)c7ccccc7)cc6)cc52)-c2cc(Oc5ccc(C(C)(C)c6ccccc6)cc5)ccc2-4)c2ccc(Oc4ccc(C(C)(C)c5ccccc5)cc4)cc32)cc1 |  |  | > 100 µM (inactive) | 35 µM (inactive) | > 100 µM (inactive) |  | > 100 µM (inactive) | > 100 µM (inactive) |  | > 100 µM (inactive) | > 100 µM (inactive) |  | > 100 µM (inactive) |  | > 100 µM (inactive) | > 100 µM (inactive) | > 100 µM (inactive) | > 100 µM (inactive) | > 100 µM (inactive) | > 100 µM (inactive)
6 | CN(CCc1ccccn1)C(=S)N/N=C/c1ccccn1 | 0.0516 µM (active) | < 0.01 µM (active) | 0.442 µM (active) | 0.0935 µM (active) | < 0.01 µM (active) | 0.147 µM (active) | 0.182 µM (active) | 0.0238 µM (active) | < 0.01 µM (active) | 0.0916 µM (active) | 0.07 µM (active) | 0.298 µM (active) | < 0.0275 µM (active) | 0.248 µM (active) | 0.139 µM (active) | 0.23 µM (active) | 0.0495 µM (active) | 0.0194 µM (active) |  | 
7 | CCC1=C(c2ccc(OC)cc2)CC[C@@]2(CCNC2=O)[C@@H]1C | > 100 µM (inactive) | 24.7 µM (inactive) | > 100 µM (inactive) | > 100 µM (inactive) | 57.7 µM (inactive) | > 55.2 µM (inactive) | 58.7 µM (inactive) | > 100 µM (inactive) | > 100 µM (inactive) | > 100 µM (inactive) | > 75 µM (inactive) | > 100 µM (inactive) | > 43.2 µM (inactive) | > 100 µM (inactive) | > 96.2 µM (inactive) | > 100 µM (inactive) | > 100 µM (inactive) | > 100 µM (inactive) |  | 
8 | COc1c(CC(C)=O)ccc2c1C(=O)c1ccc(C=O)c(OC(C)=O)c1C2=O | 15.7 µM (inactive) |  | 11 µM (inactive) | 7.89 µM (inactive) | 3.23 µM (inactive) | 21.2 µM (inactive) | 12.7 µM (inactive) | 15.3 µM (inactive) | 17.8 µM (inactive) | 12.6 µM (inactive) | 14.3 µM (inactive) |  | > 10 µM (inactive) | 4.38 µM (inactive) | 20.4 µM (inactive) | 11.5 µM (inactive) | 6.32 µM (inactive) | 27.3 µM (inactive) |  | 14.9 µM (inactive)
9 | COC(=O)C1C(O)C(C)C(=O)C(C)/C=C\C=C(C)C(=O)Nc2c(C)c(OC(C)=O)c3c(c2O)C(=O)C(C)=C2OCOC(=C23)C(C)=CC(C)(O)C(O)C(C)C1O (stereo not drawn) | 46.7 µM (inactive) | 30.3 µM (inactive) | 27.4 µM (inactive) | 47.4 µM (inactive) | 20 µM (inactive) | 62.2 µM (inactive) | 22.2 µM (inactive) | 29 µM (inactive) | 44.2 µM (inactive) | 33.8 µM (inactive) | 24.9 µM (inactive) | 15 µM (inactive) | 17.5 µM (inactive) | 99.8 µM (inactive) | 23.5 µM (inactive) | 21 µM (inactive) | 54.6 µM (inactive) | 24.9 µM (inactive) |  | 
10 | O=C1/C(=C/c2ccc(O)cc2)CCC1CNc1ccccc1 (stereo not drawn) | 17.9 µM (inactive) | 1.74 µM (inactive) | 15.4 µM (inactive) | 16.1 µM (inactive) | 1.61 µM (inactive) | 15.9 µM (inactive) | 15.3 µM (inactive) | 17.7 µM (inactive) | 12.5 µM (inactive) | 2.54 µM (inactive) | 8.38 µM (inactive) | 12.3 µM (inactive) | 14.3 µM (inactive) | 14.8 µM (inactive) | 15.6 µM (inactive) | 18.8 µM (inactive) | 6.9 µM (inactive) | 17.9 µM (inactive) |  | 
11 | Clc1ccc(OCc2nnc3n2N=C(c2ccc(Br)cc2)CS3)cc1 | 53.1 µM (inactive) | > 100 µM (inactive) | 28 µM (inactive) | 8.43 µM (inactive) | > 100 µM (inactive) | 15.8 µM (inactive) | 28 µM (inactive) | > 100 µM (inactive) | > 10 µM (inactive) | 32.7 µM (inactive) | 3.74 µM (inactive) |  | 40.9 µM (inactive) |  | 2.8 µM (inactive) | 84.5 µM (inactive) | 16.4 µM (inactive) | 5.36 µM (inactive) | 23.6 µM (inactive) | 
12 | COC(=O)C1=C(O)C(C(=O)OC)[C@]2(O)[C@H](C(=O)OC)[C@H]1C[C@@H](c1ccc(O)cc1)[C@H]2C(=O)OC (stereo partly drawn) | 44.4 µM (inactive) | 23.2 µM (inactive) | 41.8 µM (inactive) | 30.3 µM (inactive) | 54 µM (inactive) | 22 µM (inactive) | 32.7 µM (inactive) | 23.8 µM (inactive) | 21.2 µM (inactive) | 50.7 µM (inactive) | 29.2 µM (inactive) | 23.1 µM (inactive) | 28.1 µM (inactive) | 30.3 µM (inactive) | 45 µM (inactive) | 19.9 µM (inactive) | 39 µM (inactive) | 33.3 µM (inactive) |  | 
13 | CCOc1ccc(NCc2cc(OC)c(OC)c(OC)c2)cc1 | 11.3 µM (inactive) | 0.288 µM (active) | 2.99 µM (inactive) | 0.562 µM (active) |  | 0.417 µM (active) |  |  |  | 0.334 µM (active) | 0.918 µM (active) | 3.15 µM (inactive) | 1.96 µM (inactive) | 3.4 µM (inactive) | 9.02 µM (inactive) | 0.9 µM (active) | 1.32 µM (inactive) |  |  | 0.475 µM (active)
14 | CN(C)Cc1cc(C(=O)/C=C/c2c(Cl)cccc2Cl)cc(CN(C)C)c1O | 14.4 µM (inactive) | 3.18 µM (inactive) | 8.49 µM (inactive) | 14.5 µM (inactive) | 3.74 µM (inactive) | 8.51 µM (inactive) | 3.69 µM (inactive) | 18.2 µM (inactive) | 2.88 µM (inactive) | 4.12 µM (inactive) | 1.77 µM (inactive) | 8.2 µM (inactive) | 14.6 µM (inactive) | 11.9 µM (inactive) | 2.79 µM (inactive) | 19 µM (inactive) | 5.2 µM (inactive) | 9.27 µM (inactive) |  | 
15 | COc1ccc(C[C@@H](C(=O)NCCNC(=O)C(CC(C)C)N(C)C(=O)[C@@H]2CCCN2C(=O)[C@H](C)O)N(C)C(=O)[C@@H]2CCCN2C(=O)[C@H](CC(C)C)NC(=O)C(C)NC(=O)OCc2ccccc2)cc1 (stereo partly drawn) (Cbz-[ξA]LP[NMeY](Me)-{Ethylenediamine-ξNMeL-Pro-Lac}) | > 100 µM (inactive) | 54.3 µM (inactive) | > 100 µM (inactive) | > 100 µM (inactive) | 34.6 µM (inactive) | > 100 µM (inactive) | > 100 µM (inactive) | > 100 µM (inactive) | > 100 µM (inactive) | > 100 µM (inactive) | 37 µM (inactive) | > 100 µM (inactive) | > 100 µM (inactive) | > 100 µM (inactive) | > 100 µM (inactive) | > 100 µM (inactive) | > 100 µM (inactive) | > 100 µM (inactive) |  | 
